Where two headings read alike, the source gives them in different places.

Test [1] relates to PSV with methionine 184 to valine (M184V) substitution in the reverse transcriptase gene. As to the kind of experiment: microbe, parasite or virus in culture. In kind it is cell-based, HIV. The conditions noted are these: read-out: M184V IC50.
The subject of test [2] is wild-type NL4-3 replication defective pseudovirus (PSV). As to the kind of experiment: microbe, parasite or virus in culture. In kind it is cell-based. The conditions noted are these: NL43, 72 h, U373 cells expressing human CD4 and CXCR4 or CCR5, luciferase signal after 3 days, mean IC50, read-out: WT IC50.
Setting [3] is: Human immunodeficiency virus 1, 72 h.

`C#C[C@]1(CO)O[C@@H](n2cnc3c(N)nc(F)nc32)C[C@@H]1OC(=O)C(CCCC)CCCCCC` (stereo partly drawn) [Example 17, (2R,3S,5R)-5-(6-amino-2-fluoro-9H-purin-9-yl)-2-ethynyl-2-(hydroxymethyl)tetrahydrofuran-3-yl 2-butyloctanoate]: the IC50 amounted to 598 nM in test [1] (setting [3]) and 145 nM in test [2].

`C#C[C@]1(CO)O[C@@H](n2cnc3c(NC(=O)CCCCCCCCCCCCC)nc(F)nc32)C[C@@H]1OC(=O)CC(C)(C)c1c(C)cc(C)cc1OC(C)=O` [Example 28, (2R,3S,5R)-2-ethynyl-5-(2-fluoro-6-tetradecanamido-9H-purin-9-yl)-2-(hydroxymethyl)tetrahydrofuran-3-yl 3-(2-acetoxy-4,6-dimethylphenyl)-3-methylbutanoate]: the IC50 in test [1] (setting [3]) is 153 nM; in test [2], 41.5 nM.

As for `C#C[C@]1(CO)O[C@@H](n2cnc3c(NC(=O)OCC)nc(F)nc32)C[C@@H]1OC(=O)CCCCCCCCC` [Example 8, (2R,3S,5R)-5-(6-((ethoxycarbonyl)amino)-2-fluoro-9H-purin-9-yl)-2-ethynyl-2-(hydroxymethyl)tetrahydrofuran-3-yl decanoate], the results for the IC50 in test [1] (setting [3]) and in test [2] were 460 nM and 165 nM, respectively.

In the case of `C#C[C@]1(CO)O[C@@H](n2cnc3c(NC(=O)CCC)nc(F)nc32)C[C@@H]1OC(=O)CCC` [Example 26, (2R,3S,5R)-5-(6-butyramido-2-fluoro-9H-purin-9-yl)-2-ethynyl-2-(hydroxymethyl)tetrahydrofuran-3-yl butyrate], the figures for the half-maximal inhibitory concentration (IC50) in test [1] (setting [3]) and in test [2] were 465 nM and 102 nM, respectively.

For the molecule `C#C[C@]1(CO)O[C@@H](n2cnc3c(N)nc(F)nc32)C[C@@H]1O` [EFdA, 4′-ethynyl-2-fluoro-2′-deoxyadenosine, reference compound], the IC50 amounted to 35.1 nM in test [1] (U373 cells expressing human CD4 and CXCR4 or CCR5, luciferase signal after 3 days, mean IC50); 6.5 nM in test [2].

For the molecule `C#C[C@]1(COC(=O)OCC)O[C@@H](n2cnc3c(N)nc(F)nc32)C[C@@H]1OC(=O)CCCCCCCCC` [Example 9, (2R,3S,5R)-5-(6-amino-2-fluoro-9H-purin-9-yl)-2-(((ethoxycarbonyl)oxy)methyl)-2-ethynyltetrahydrofuran-3-yl decanoate], the half-inhibitory concentration (IC50) in test [1] (setting [3]) is 53 nM; in test [2] it was 11.4 nM.

Take `C#C[C@]1(CO)O[C@@H](n2cnc3c(N)nc(F)nc32)C[C@@H]1OC(=O)[C@H]1CC[C@H](CCCCC)CC1` [Example 12, (2R,3S,5R)-5-(6-amino-2-fluoro-9H-purin-9-yl)-2-ethynyl-2-(hydroxymethyl)tetrahydrofuran-3-yl (1s,4S)-4-pentylcyclohexane-1-carboxylate]: the half-maximal inhibitory concentration (IC50) in test [1] (setting [3]) is 10.7 nM; in test [2] it was 1.8 nM.

For `C#C[C@]1(CO)O[C@@H](n2cnc3c(N)nc(F)nc32)C[C@@H]1OC(=O)CCCCCCCCCCCCCCCCCCC` [Example 6, (2R,3S,5R)-5-(6-amino-2-fluoro-9H-purin-9-yl)-2-ethynyl-2-(hydroxymethyl)tetrahydrofuran-3-yl icosanoate], the figures for the IC50 in test [1] (setting [3]) and in test [2] were 3280 nM and 635 nM, respectively.

On to `C#C[C@]1(CO)O[C@@H](n2cnc3c(N)nc(F)nc32)C[C@@H]1OC(=O)CCC` [Example 20, (2R,3S,5R)-5-(6-amino-2-fluoro-9H-purin-9-yl)-2-ethynyl-2-(hydroxymethyl)tetrahydrofuran-3-yl butyrate], for which the IC50 in test [1] (setting [3]) was 124 nM; in test [2], 27.7 nM.

As for `C#C[C@]1(COC(=O)OCCCCCC)O[C@@H](n2cnc3c(N)nc(F)nc32)C[C@@H]1OC(=O)CCCCCCCCCCCCC` [Example 23, (2R,3S,5R)-5-(6-amino-2-fluoro-9H-purin-9-yl)-2-ethynyl-2-((((hexyloxy)carbonyl)oxy)methyl)tetrahydrofuran-3-yl tetradecanoate], the IC50 was found to be 1130 nM in test [1] (setting [3]) and 1090 nM in test [2].

Regarding `C#C[C@]1(CO)O[C@@H](n2cnc3c(NC(=O)CCCCCC)nc(F)nc32)C[C@@H]1OC(=O)CCCCCC` [Example 25, (2R,3S,5R)-2-ethynyl-5-(2-fluoro-6-heptanamido-9H-purin-9-yl)-2-(hydroxymethyl)tetrahydrofuran-3-yl heptanoate], the values for the IC50 in test [1] (setting [3]) and in test [2] were 43.9 nM and 9.4 nM, respectively.

Take `C#C[C@]1(CO)O[C@@H](n2cnc3c(N)nc(F)nc32)C[C@@H]1OC(=O)C(C)(C)CCC` [Example 18, (2R,3S,5R)-5-(6-amino-2-fluoro-9H-purin-9-yl)-2-ethynyl-2-(hydroxymethyl)tetrahydrofuran-3-yl 2,2-dimethylpentanoate]: the 50% inhibitory concentration (IC50) in test [1] (setting [3]) was 168 nM; in test [2] it was 46.4 nM.

`C#C[C@]1(CO)O[C@@H](n2cnc3c(N)nc(F)nc32)C[C@@H]1OC(=O)C(CCC)CCC` [Example 5, (2R,3S,5R)-5-(6-amino-2-fluoro-9H-purin-9-yl)-2-ethynyl-2-(hydroxymethyl)tetrahydrofuran-3-yl 2-propylpentanoate]: the half-inhibitory concentration (IC50) in test [1] (setting [3]) worked out at 168 nM; in test [2], 35.5 nM.

As for `C#C[C@]1(CO)O[C@@H](n2cnc3c(N)nc(F)nc32)C[C@@H]1OC(=O)C(CCCCCC)CCCCCCCC` (stereo partly drawn) [Example 15, (2R,3S,5R)-5-(6-amino-2-fluoro-9H-purin-9-yl)-2-ethynyl-2-(hydroxymethyl)tetrahydrofuran-3-yl 2-hexyldecanoate], the results for the IC50 in test [1] (setting [3]) and in test [2] were 3120 nM and 555 nM, respectively.

As to `C#C[C@]1(CO)O[C@@H](n2cnc3c(N)nc(F)nc32)C[C@@H]1OC(=O)CCCCCCCCC` [Example 3, (2R,3S,5R)-5-(6-amino-2-fluoro-9H-purin-9-yl)-2-ethynyl-2-(hydroxymethyl)tetrahydrofuran-3-yl decanoate], the IC50 was determined as 7 nM in test [1] (setting [3]) and 1.3 nM in test [2].

For the molecule `C#C[C@]1(CO)O[C@@H](n2cnc3c(N)nc(F)nc32)C[C@@H]1OC(=O)c1ccccc1` [Example 19, (2R,3S,5R)-5-(6-amino-2-fluoro-9H-purin-9-yl)-2-ethynyl-2-(hydroxymethyl)tetrahydrofuran-3-yl benzoate], the IC50 in test [1] (setting [3]) stood at 197 nM; in test [2], 40.8 nM.

As to `C#C[C@]1(CO)O[C@@H](n2cnc3c(N)nc(F)nc32)C[C@@H]1OC(=O)C1CCCCC1` [Example 16, (2R,3S,5R)-5-(6-amino-2-fluoro-9H-purin-9-yl)-2-ethynyl-2-(hydroxymethyl)tetrahydrofuran-3-yl cyclohexanecarboxylate], the IC50 in test [1] (setting [3]) amounted to 19 nM; in test [2], 3.9 nM.

As for `C#C[C@]1(CO)O[C@@H](n2cnc3c(NC(=O)CCCCCCCCCCCCC)nc(F)nc32)C[C@@H]1OC(C)=O` [Example 14, (2R,3S,5R)-2-ethynyl-5-(2-fluoro-6-tetradecanamido-9H-purin-9-yl)-2-(hydroxymethyl)tetrahydrofuran-3-yl acetate], the IC50 was 68 nM in test [1] (setting [3]) and 11.4 nM in test [2].

As for `C#C[C@]1(CO)O[C@@H](n2cnc3c(N)nc(F)nc32)C[C@@H]1OC(=O)Cc1ccccc1` [Example 10, (2R,3S,5R)-5-(6-amino-2-fluoro-9H-purin-9-yl)-2-ethynyl-2-(hydroxymethyl)tetrahydrofuran-3-yl 2-phenylacetate], the IC50 was 26.2 nM in test [1] (setting [3]) and 7.2 nM in test [2].

As for `C#C[C@]1(CO)O[C@@H](n2cnc3c(N)nc(F)nc32)C[C@@H]1OC(=O)CCCCCCC/C=C\C/C=C\C/C=C\CC` [Example 7, (9Z,12Z,15Z)-(2R,3S,5R)-5-(6-amino-2-fluoro-9H-purin-9-yl)-2-ethynyl-2-(hydroxymethyl)tetrahydrofuran-3-yl octadeca-9,12,15-trienoate], the concentration for half-maximal inhibition (IC50) was 36.4 nM in test [1] (setting [3]) and 7.1 nM in test [2].

`C#C[C@]1(CO)O[C@@H](n2cnc3c(N)nc(F)nc32)C[C@@H]1OC(=O)C(C)(C)C` [Example 13, (2R,3S,5R)-5-(6-amino-2-fluoro-9H-purin-9-yl)-2-ethynyl-2-(hydroxymethyl)tetrahydrofuran-3-yl pivalate]: the IC50 in test [1] (setting [3]) was 1280 nM; in test [2], 262 nM.

In the case of `C#C[C@]1(CO)O[C@@H](n2cnc3c(NC(=O)CCCCCCCCC)nc(F)nc32)C[C@@H]1OC(=O)CCCCCCCCC` [Example 27, (2R,3S,5R)-5-(6-decanamido-2-fluoro-9H-purin-9-yl)-2-ethynyl-2-(hydroxymethyl)tetrahydrofuran-3-yl decanoate], the half-inhibitory concentration (IC50) was found to be 28.6 nM in test [1] (setting [3]) and 6.8 nM in test [2].

Regarding `C#C[C@]1(CO)O[C@@H](n2cnc3c(N)nc(F)nc32)C[C@@H]1OC(=O)CCCCCCCCCCCCC` [Example 2, (2R,3S,5R)-5-(6-amino-2-fluoro-9H-purin-9-yl)-2-ethynyl-2-(hydroxymethyl)tetrahydrofuran-3-yl tetradecanoate], the IC50 came to 7.8 nM in test [1] (setting [3]) and 1.5 nM in test [2].

Turning to `C#C[C@]1(CO)O[C@@H](n2cnc3c(N)nc(F)nc32)C[C@@H]1OC(=O)C(C)CCCCC` (stereo partly drawn) [Example 11, (2R,3S,5R)-5-(6-amino-2-fluoro-9H-purin-9-yl)-2-ethynyl-2-(hydroxymethyl)tetrahydrofuran-3-yl 2-methylheptanoate], the IC50 in test [1] (setting [3]) was found to be 17 nM; in test [2] it was 2.9 nM.

For `C#C[C@]1(CO)O[C@@H](n2cnc3c(N)nc(F)nc32)C[C@@H]1OC(=O)CCCCCC` [Example 4, (2R,3S,5R)-5-(6-amino-2-fluoro-9H-purin-9-yl)-2-ethynyl-2-(hydroxymethyl)tetrahydrofuran-3-yl heptanoate], the IC50 in test [1] (setting [3]) was found to be 24 nM; in test [2], 4.1 nM.

Consider `C#C[C@]1(CO)O[C@@H](n2cnc3c(N)nc(F)nc32)C[C@@H]1OC(=O)[C@H]1CC[C@H](C(C)(C)C)CC1` [Example 22, (2R,3S,5R)-5-(6-amino-2-fluoro-9H-purin-9-yl)-2-ethynyl-2-(hydroxymethyl)tetrahydrofuran-3-yl (1r,4S)-4-(tert-butyl)cyclohexane-1-carboxylate], for which the IC50 in test [1] (setting [3]) was 9.3 nM; in test [2] it was 2.6 nM.

The record behind these values is patent US20220117993A1, “Compounds Useful in HIV Therapy” (GlaxoSmithKline Intellectual Property (No. 2) Limited, priority 2018, published 2022).
